Earlier results, collected in article PMC8155967, “Investigating the Potential of Transdermal Delivery of Avanafil Using Vitamin E-TPGS Based Mixed Micelles Loaded Films” (Pharmaceutics, 2021).
≈ marks a conversion by molar mass, not a printed value.

For COc1ccc(CN=c2[nH]c(N3CCC[C@H]3CO)ncc2C(=O)NCc2ncccn2)cc1Cl [AVA, Avanafil], which partition coefficient is on record?
Its partition coefficient is 2.78.

And the solubility in water?
Its solubility in water is 0.03 mg/mL (≈ 62 µM).
